Laboratory results as given in US20050100595A1, “Methods for micronization of hydrophobic drugs” (Brown University Research Foundation, priority 2001, published 2005).

Assays:
[1] = Coulter particle size analysis (laser-light diffractometry, volume statistics); assay type: physicochemical
Procedure: A 250 μg/mL suspension of microspheres in 1% pluronic F127 [poly(ethylene oxide)-b-poly(propylene oxide)-b-poly(ethylene oxide)]/1% hydroxypropylmethylcellulose (HPMC) was introduced into the small volume fluid module. Only the Coulter output based on volume measurements was used for analysis.

[2] = Dicumarol loading by NaOH extraction; assay type: physicochemical; settings: dicumarol content by NaOH extraction
Procedure: 100 mg p(FA:SA) 17:83 was dissolved in this solution by sonicating for an additional 30 s. The resultant solution was dispersed into 1.0 L petroleum ether and the precipitate was collected using a 100 nm filter composed of mixed-cellulose esters. The microsphere formulation was then frozen and lyophilized for 24 hours. The dicumarol loading was determined in this formulation by a simple extraction protocol. Microspheres were incubated overnight in 2.5 N NaOH at 37° C. Upon dissolution, an aliquot of approximately 15 μg based on theoretical loading was added to 2.5 N NaOH to make a total volume of 800 μL. This mixture was agitated for 2 minutes and centrifuged for 2 minutes at 11,269 g.
The dicumarol loading was determined in all formulations by a simple extraction protocol. Microspheres were incubated overnight in 2.5 N NaOH at 37° C. Upon dissolution, an aliquot of approximately 15 μg based on theoretical loading was added to 2.5 N NaOH to make a total volume of 800 μL. This mixture was agitated for 2 minutes and centrifuged for 2 minutes at 11,269 g.

in vivo = settings: rat, 25 mg/kg
Excerpt: Rats were anesthetized using isoflurane gas.
Non-compartmental pharmacokinetics were assumed.

[3] = Scanning electron microscopy of dicumarol formulations; assay type: physicochemical
Procedure: Scanning Electron Microscopy: All samples were sputter-coated with an Au—Pd target for 3.5 minutes and spread out on a carbon-backed adhesive disc on top of the SEM stub. The Hitachi 2700 was used to visualize the samples at an accelerating voltage of 8 kV.

Compound: O=c1oc2ccccc2c(O)c1Cc1c(O)c2ccccc2oc1=O [Stock, Dicumarol]
- mean particle diameter ([1]; based on volume statistics): 18.5 μm
- Coulter Particle Analysis 25% < ([1]; volume calculations, 25% of population less than this size): 12.98 μm
- Coulter Particle Analysis 50% < ([1]; volume calculations, 50% of population less than this size): 18.95 μm
- Coulter Particle Analysis 75% < ([1]; volume calculations, 75% of population less than this size): 24.82 μm
- Loading (drug loading) [2]: 100%
- bioavailability (in vivo; male, Sprague-Dawley): 90.1 ± 7.3%
- Cmax (in vivo; male, Sprague-Dawley, po): 73 ± 6 µg/mL
- Tmax (in vivo; male, Sprague-Dawley, po): 14 ± 2 h
- plasma concentration reached (peak of plasma curve) (in vivo; male, Sprague-Dawley, po): 64 µg/mL
- time after which the peak of the plasma curve was reached (in vivo; male, Sprague-Dawley, po): 3 h
- AUC (in vivo; po): 2666 ± 206 µg·h/mL
- particle size seen in SEM micrographs ([3]; FIG. 1): 10-20 microns
- particle size seen in SEM micrographs ([3]; FIG. 7A): approximately 25 μm
